Measurements taken from patent US11147272B2, “Pyridone compounds and agricultural and horticultural fungicides comprising the same as active ingredients” (MITSUI CHEMICALS AGRO, INC., priority 2017, dated 2021).

How the values were obtained:
[1] = test system: Puccinia recondita; test: Test Example E: Brown rust on wheat; assay type: in vivo; settings: for Test E control value class: class of control value
[2] = test system: Botrytis cinerea; test: Test Example B: Gray mold on tomato; settings: for Test B control value class: class of control value
[3] = test system: Alternaia brassicicola; test: Test Example C: Alternaria sooty spot on cabbage; assay type: in vivo; settings: for Test C control value class: class of control value
Source text: Seeds of a test plant (cabbage variety: Shikidori) were planted and cultivated until the cotyledons extended.
<Control Value> Control value=100{1−(n/3)}

[4] = test system: Plasmopara viticola; test: Test Example G: Downy mildew on vine; settings: for Test G control value class: Downy mildew on vine (Neomuscat), 2.5 ml/pot, assessed 7 to 10 days after inoculation; for Test G control value: 7 to 10 days after inoculation
[5] = test system: Blumeria graminis f. sp. hordei; test: Test Example D: Powdery mildew on barley; settings: for Test D control value class: class of control value
[6] = test system: Magnaporthe grisea; test: whole plant or invertebrate; assay type: in vivo; settings: for Test A control value class: class of control value
[7] = test system: Phytophthora infestans; test: whole plant or invertebrate; assay type: in vivo; settings: for Test F control value class: class of control value
[8] = test system: Colletotrichum orbiculare; test: Test Example H: Anthracnose on cucumber; settings: for Test H control value class: Anthracnose on cucumber (Sagami Hanjiro), 2.5 ml/pot, assessed 6 to 10 days after inoculation; for Test H control value: 6 to 10 days after inoculation
[9] = Alternaria sooty spot on cabbage
[10] = 250 ppm drug solution sprayed on test plant
[11] = 250 ppm drug solution sprayed (2.5 ml/pot), grape Neomuscat
[12] = 250 ppm drug solution sprayed (2.5 ml/pot), cucumber Sagami Hanjiro
[13] = Brown rust on wheat, control value class
[14] = Gray mold on tomato, control value class
[15] = Alternaria sooty spot on cabbage, control value class
[16] = Downy mildew on vine, 250 ppm spray
[17] = Powdery mildew on barley, control value class
[18] = Blast on rice, control value class
[19] = Late blight on tomato, control value class
[20] = Anthracnose on cucumber, 250 ppm spray

| Compound | Test E control value class ([1]; Brown rust on wheat) | Test B control value class ([2]; Gray mold on tomato) | Test C control value class [3, 9] | Test G control value class ([4]; 250 ppm spray) | Test D control value class ([5]; Powdery mildew on barley) | Test A control value class ([6]; Blast on rice) | Test F control value class ([7]; Late blight on tomato) | Test H control value class ([8]; 250 ppm spray) | Test E control value [1, 13] | Test B control value [2, 14] | Test C control value [3, 15] | Test G control value [4, 16] | Test D control value [5, 17] | Test A control value [6, 18] | Test F control value [7, 19] | Test H control value [8, 20] | further results |
| --- | --- | --- | --- | --- | --- | --- | --- | --- | --- | --- | --- | --- | --- | --- | --- | --- | --- |
| CCn1c(-c2c(F)cccc2OC)c(CC(C)C)ccc1=O [compound 95] | H (more than 50% control value) | H (more than 50% control value) | L (50% or less control value) | L (50% or less control value) | H (more than 50% control value) | L (50% or less control value) | H (more than 50% control value) | L (50% or less control value) |  |  |  |  |  |  |  |  |  |
| CCn1c(-c2c(F)cc(F)cc2F)c(C=O)ccc1=O [compound 449] |  |  |  |  |  |  |  |  |  |  |  |  |  |  |  |  | Test E control value [1, 10]: L (50% or less control value); Test B control value [2, 10]: H (more than 50% control value); Test C control value [3, 10]: L (50% or less control value); Test G control value [4, 11]: L (50% or less control value); Test D control value [5, 10]: L (50% or less control value); Test A control value [6, 10]: L (50% or less control value); Test F control value [7, 10]: L (50% or less control value); Test H control value [8, 12]: L (50% or less control value) |
| CCc1ccc(=O)n(CC)c1-c1ccc(OC)cc1Br [compound 344] |  |  |  |  |  |  |  |  | H (more than 50% control value) | H (more than 50% control value) | H (more than 50% control value) | L (50% or less control value) | L (50% or less control value) | L (50% or less control value) | L (50% or less control value) | L (50% or less control value) |  |
| CCn1c(-c2c(F)cc(OC)cc2F)c(C(C)(O)C(C)(C)C)cc(Cl)c1=O (racemic) [compound 180] | L (50% or less control value) | H (more than 50% control value) | H (more than 50% control value) | L (50% or less control value) | L (50% or less control value) | H (more than 50% control value) | L (50% or less control value) | L (50% or less control value) |  |  |  |  |  |  |  |  |  |
| CCc1cc(Cl)c(=O)n(CC)c1-c1c(F)cc(F)cc1F [compound 386] |  |  |  |  |  |  |  |  |  |  |  |  |  |  |  |  | Test E control value [1, 10]: H (more than 50% control value); Test B control value [2, 10]: H (more than 50% control value); Test C control value [3, 10]: H (more than 50% control value); Test G control value [4, 11]: H (more than 50% control value); Test D control value [5, 10]: H (more than 50% control value); Test A control value [6, 10]: H (more than 50% control value); Test F control value [7, 10]: L (50% or less control value); Test H control value [8, 12]: H (more than 50% control value) |
| CCn1c(-c2c(F)cccc2F)c(COC)cc(Cl)c1=O [compound 45] | H (more than 50% control value) | H (more than 50% control value) | H (more than 50% control value) | L (50% or less control value) | H (more than 50% control value) | H (more than 50% control value) | L (50% or less control value) | L (50% or less control value) |  |  |  |  |  |  |  |  |  |
| CCn1c(-c2c(F)cc(OC)cc2F)c(COC(C)C)cc(Cl)c1=O [compound 60] | H (more than 50% control value) | H (more than 50% control value) | H (more than 50% control value) | H (more than 50% control value) | H (more than 50% control value) | H (more than 50% control value) | L (50% or less control value) | H (more than 50% control value) |  |  |  |  |  |  |  |  |  |
| CCn1c(-c2ccc(Cl)cc2Cl)c(CC(C)C)ccc1=O [compound 135] | H (more than 50% control value) | H (more than 50% control value) | H (more than 50% control value) | H (more than 50% control value) | H (more than 50% control value) | H (more than 50% control value) | L (50% or less control value) | H (more than 50% control value) |  |  |  |  |  |  |  |  |  |
| CCC(C)c1cc(Cl)c(=O)n(CC)c1-c1c(F)cc(OC)cc1F (centres unmarked) [compound 35] | H (more than 50% control value) | H (more than 50% control value) | H (more than 50% control value) | L (50% or less control value) | H (more than 50% control value) | H (more than 50% control value) | L (50% or less control value) | H (more than 50% control value) |  |  |  |  |  |  |  |  |  |
| CCn1c(-c2ccc(OC)cc2)c(C(C)(OC)C(C)C)cc(Cl)c1=O (centres unmarked) [compound 224] |  |  |  |  |  |  |  |  | H (more than 50% control value) | H (more than 50% control value) | L (50% or less control value) | L (50% or less control value) | L (50% or less control value) | L (50% or less control value) | L (50% or less control value) | L (50% or less control value) |  |
| CCc1ccc(=O)n(C)c1-c1ccc(OC)cc1C [compound 367] |  |  |  |  |  |  |  |  | L (50% or less control value) | L (50% or less control value) | L (50% or less control value) | L (50% or less control value) | H (more than 50% control value) | L (50% or less control value) | L (50% or less control value) | H (more than 50% control value) |  |
| CCCc1cc(Br)c(=O)n(CCC)c1-c1c(F)cc(OC)cc1F [compound 444] |  |  |  |  |  |  |  |  |  |  |  |  |  |  |  |  | Test E control value [1, 10]: H (more than 50% control value); Test B control value [2, 10]: H (more than 50% control value); Test C control value [3, 10]: H (more than 50% control value); Test G control value [4, 11]: H (more than 50% control value); Test D control value [5, 10]: L (50% or less control value); Test A control value [6, 10]: L (50% or less control value); Test F control value [7, 10]: L (50% or less control value); Test H control value [8, 12]: H (more than 50% control value) |
| CCCc1cc(Br)c(=O)n(CC)c1-c1ccc(OC)cc1Cl [compound 321] |  |  |  |  |  |  |  |  | H (more than 50% control value) | H (more than 50% control value) | H (more than 50% control value) | H (more than 50% control value) | H (more than 50% control value) | H (more than 50% control value) | L (50% or less control value) | H (more than 50% control value) |  |
| CCC1=C(c2ccc(F)cc2Br)N(CC)C(=O)CC1 [compound 338] |  |  |  |  |  |  |  |  | L (50% or less control value) | L (50% or less control value) | H (more than 50% control value) | L (50% or less control value) | L (50% or less control value) | L (50% or less control value) | L (50% or less control value) | L (50% or less control value) |  |
| CC(C)Cc1cc(Br)c(=O)n(C)c1-c1ccc(Cl)cc1Cl [compound 138] | H (more than 50% control value) | H (more than 50% control value) | H (more than 50% control value) | L (50% or less control value) | L (50% or less control value) | H (more than 50% control value) | L (50% or less control value) | H (more than 50% control value) |  |  |  |  |  |  |  |  |  |
| CCc1cc(Cl)c(=O)n(C)c1-c1ccc(F)cc1C [compound 362] |  |  |  |  |  |  |  |  | H (more than 50% control value) | H (more than 50% control value) | L (50% or less control value) | L (50% or less control value) | H (more than 50% control value) | H (more than 50% control value) | L (50% or less control value) | L (50% or less control value) |  |
